# Test results taken from publication PMC10827914 (Cellular and Molecular Life Sciences: CMLS, 2024).
# Key:
# [1] = system: soluble CD13 from human serum (sCD13); assay: Competitive ELISA of sCD13 binding to mAb WM15; settings: plates coated with mAb WM15 5 μg/mL, human serum diluted 1:2, 2 h, room temperature
# Description: Fig. 4 The active site of membrane CD13 expressed by HUVEC, but not that of soluble CD13 or membrane CD13 expressed by HL60 cells, is accessible to G4-TNF. A Competitive effects of G4 and G4-TNF on the binding of mAb WM15 (anti-CD13) to sCD13 or rCD13 showing the lack of binding of G4-TNF to natural and recombinant soluble CD13 (sCD13 and rCD13). G4, scrambled G4 (GCRSNCYRVG), and TNF were used as positive (G4) and negative (scrambled G4, TNF) controls. The sCD13 competition assay was performed as follows: microplates were coated with mAb WM15 (5 μg/mL) in DPBS and incubated overnight at 4 °C. […] The mixtures were incubated for 2 h at room temperature and washed with DPBS. To detect bound sCD13, we added an anti-CD13 rabbit polyclonal antibody (1:1000, 1 h at room temperature), washed with DPBS, and added peroxidase-labeled goat anti-rabbit secondary antibody (1:2000, 1 h). Bound peroxidase was detected using o-phenylendiamine chromogenic substrate. The absorbance of o-phenylenediamine was measured at 490 nm using an ELISA plate reader (Bio-Rad). Cumulative results of two independent experiments, each performed in duplicate, are shown (mean ± SEM). The rCD13 competition assay was performed as described in Supplementary Fig. S2 (one experiment in duplicate, mean ± SEM). […]
# [2] = system: membrane CD13 expressed by HUVEC; assay: Competitive binding of anti-CD13 mAb WM15 to HUVEC by flow cytometry; parameters: species or system human
# Description: HUVEC were seeded in 96-well U-bottom polystyrene microtiter plates at a density of 2 × 10^5 cells in 100 µL DPBS supplemented with 5% normal human serum (NHS) and mixed with a mixture of peptide G4 ranging from 0 to 10 µM and mAb WM15 (0 or 0.13 nM). The chromogranin A429-439 peptide fragment (CgA429-439) was used instead of G4 as a control. After 1 h of incubation at 4 °C, the cells were washed and resuspended in 100 µL of DPBS containing 5% NHS and 1 µg/mL of FITC-labeled goat anti-mouse IgG secondary antibody. Cells were subsequently incubated for 1 h at 4 °C, washed, and analyzed by flow cytometry. All flow cytometry data were collected on a CytoFLEX S flow cytometer (Beckman Coulter) and analyzed using FlowJo software 10 (BD BioScience).
# Fig. 2 G4 recognizes soluble forms of CD13, with higher affinity and selectivity than bestatin, and the membrane forms expressed on the surface of HUVEC cells. A Inhibitory effects of G4 and bestatin on the enzymatic activities of different aminopeptidases (rCD13, APA, and APB). Various amounts of G4 or bestatin were incubated with rCD13 (0.2 µg/mL in 60 mM Tris–HCl pH 7.4), APA (0.2 µg/mL in 60 mM Tris–HCl pH 7.4, 50 mM calcium chloride, 200 mM sodium chloride) or APB (0.2 µg/mL in 60 mM Tris–HCl pH 7.4, 100 mM potassium chloride) and the corresponding substrates at 0.1 mM (L-alanine-7-amido-4-methylcoumarin for rCD13, L-glutamic acid γ-(7-amido-4-methylcoumarin) for APA, and L-arginine-7-amido-4-methylcoumarin for APB). The mixtures were incubated for 30 min at 37 °C, and the cleavage of each substrate was monitored by measuring the fluorescence of methylcoumarin (λex 341 nm; λem 441 nm) using an Infinite 200 PRO plate reader (Tecan). Three independent experiments were performed for each enzyme. […] Substrate cleavage by sCD13 dissociated from mAb WM15 was then monitored by measuring the absorbance at 405 nm in each well using a plate reader (Bio-Rad). […] After incubation for 60 min at 4 °C, the cells were washed and analyzed by flow cytometry. Data are expressed as the percentage of counts vs. fluorescence intensity units […]
substance,measurement,setting,value
"VGCARRYCS-TNF [G4-TNF, recombinant murine TNF fused to the C-terminus of G4]",Competition of sCD13 binding to mAb WM15 (in words),[1],no competition was observed
same,Competition of mAb WM15 binding to HUVEC (in words),[2]; Fig. 4C and 4D,competed the binding of mAb WM15 to endothelial cells
same,Competition of mAb WM15 binding to HUVEC (in words),"[2]; competitor 5 µM, mAb WM15 0.13 nM, 60 min, 4 °C, Supplementary Fig. S4D",competed with the binding of mAb WM15 (anti-CD13) to HUVEC to an extent similar to that observed with G4
